Reference: patent US20240132524A1, “SMALL MOLECULES FOR BORON NEUTRON CAPTURE THERAPY” (Aviko Radiopharmaceuticals, LLC, priority 2022, published 2024)
Several values for one entry are separate records, joined by “and”; a condition that tells them apart may be missing. Identical values can stand only once.

How the values were obtained:
U87-MG (glioblastoma) = assay: Cell uptake assay in U87-MG cells; format: cell-based, human; settings: 0.1 mM
Method: (§1) • 1.1.1 15 mL of cell culture medium was placed into a T225 flask. • 1.1.2 The flask was placed in a humidified 37° C., 5% CO2 incubator for 15 minutes to allow medium to equilibrate to the proper pH and temperature. • 1.1.3 The vial was removed from liquid nitrogen and thawed rapidly by placing at 37° C. in a water bath with gentle agitation for 1-2 minutes and then decontaminated by wiping with 70% ethanol before opening in a Class II biological safety cabinet. • 1.1.4 The vial contents were transferred dropwise into 10 mL of cell culture medium in a sterile 15 mL conical tube. • 1.1.5 The cells were centrifuged at 1,300 rpm for 5 minutes. • 1.1.6 The supernatant was aspirated and re-suspended the cells and transferred the cells into T225 flask containing cell culture medium.
(§2) • 1.2.1 Culture medium were renewed every 2-3 days. • 1.2.2 Keep the flask in a humidified 37° C., 5% CO2 incubator
Cells were harvested and diluted in culture medium to the designated concentration. Then the cells were cultured in T25 flasks, one T25 flask for one sample. 2.2 Formulation of test compounds • 2.2.1 L-Boronophenylalanine (L-BPA, 4-boron-L-phenylalanine, Purity: 95%, Chemical formula: C9H12BNO4, MW: 209.01, CAS: 76410-58-7) and fructose were dissolved in PBS at a molar ratio of 1:5, and then a 1.27 M ratio of 1 N NaOH is added. The mixture was stirred until L-BPA is completely dissolved, and the pH value was titrated to 7.2-7.4 with 1N HCl. • 2.2.2 For test compounds other than BPA, stock solutions were prepared of each compound in DMSO or fructose formulation at a concentration of 20 mM (such that final % DMSO in the cellular assay medium=0.5%) […]

SAS (head & neck cancer) = assay: Cell uptake assay in SAS cells; format: cell-based, human; settings: 0.1 mM
Method: as §1, §2
(§3) Cells were harvested and diluted in culture medium to the designated concentration. Then the cells were cultured in T25 flasks, one T25 flask for one sample. 2.2 Formulation of test compounds • 2.2.1 L-Boronophenylalanine (L-BPA, 4-boron-L-phenylalanine, Purity: 95%, Chemical formula: C9H12BNO4, MW: 209.01, CAS: 76410-58-7) and fructose were dissolved in PBS at a molar ratio of 1:5, and then a 1.27 M ratio of 1 N NaOH is added. The mixture was stirred until L-BPA is completely dissolved, and the pH value was titrated to 7.2-7.4 with 1N HCl. • 2.2.2 For test compounds other than BPA, stock solutions were prepared of each compound in DMSO or fructose formulation at a concentration of 20 mM (such that final % DMSO in the cellular assay medium=0.5%)
(§4) • 2.3.1 The cells were seeded overnight (12-18 hours) to allow the cells to adhere well. • 2.3.2 The stock solution of each compound was added to each T25 flask such that the final concentration for each compound is 100 uM (0.1 mM). • 2.3.3 The flasks were placed in a 37° C., […] for 1 hour, 4 hour, and 24 hours, the cells were collected by using 0.25% Trypsin with 0.53 mM EDTA. 2.3.5 Centrifuged at 1,300 rpm for 5 min to collect cell pellets.

[1] = system: NIH-3T3 (normal cell line); assay: Cell uptake assay in NIH-3T3 cells; format: cell-based, mouse; settings: 0.1 mM
Method: as §1, §2, §3, §4

B16F10 (melanoma) = assay: Cell uptake assay in B16F10 cells; format: cell-based, mouse; settings: 0.1 mM
Method: as §1, §2, §3, §4

[2] = system: SAS, B16F10, U87-MG relative to NIH-3T3; assay: Cell uptake assays, cancer cell lines compared with normal cell line; format: cell-based, human
Method: as §1, §2
Cells were harvested and diluted in culture medium to the designated concentration. Then the cells were cultured in T25 flasks, one T25 flask for one sample. 2.2 Formulation of test compounds • 2.2.1 L-Boronophenylalanine (L-BPA, 4-boron-L-phenylalanine, Purity: 95%, Chemical formula: C9H12BNO4, MW: 209.01, CAS: 76410-58-7) and fructose were dissolved in PBS at a molar ratio of 1:5, and then a 1.27 M ratio of 1 N NaOH is added. […]

Row | SMILES | Cell uptake, Mean (ng/10^6 cell), U87-MG (U87-MG (glioblastoma); 1 h) | Cell uptake, Mean (ng/10^6 cell), U87-MG (U87-MG (glioblastoma); 4 h) [ng/10^6 cell] | Cell uptake, Mean (ng/10^6 cell), U87-MG (U87-MG (glioblastoma); 24 h) [ng/10^6 cell] | Cell uptake, Mean (ng/10^6 cell), SAS (SAS (head & neck cancer); 1 h) | Cell uptake, Mean (ng/10^6 cell), SAS (SAS (head & neck cancer); 4 h) | Cell uptake, Mean (ng/10^6 cell), SAS (SAS (head & neck cancer); 24 h) | Cell uptake, Mean (ng/10^6 cell), NIH-3T3 ([1]; 1 h) [ng/10^6 cell] | Cell uptake, Mean (ng/10^6 cell), NIH-3T3 ([1]; 4 h) [ng/10^6 cell] | Cell uptake, Mean (ng/10^6 cell), NIH-3T3 ([1]; 24 h) [ng/10^6 cell] | Cell uptake, Mean (ng/10^6 cell), B16F10 (B16F10 (melanoma); 1 h) [ng/10^6 cell] | Cell uptake, Mean (ng/10^6 cell), B16F10 (B16F10 (melanoma); 4 h) | Cell uptake, Mean (ng/10^6 cell), B16F10 (B16F10 (melanoma); 24 h) [ng/10^6 cell] | Selective uptake by cancer cell lines relative to normal cell line ([2]; SAS, B16F10, U87-MG relative to NIH-3T3) | Uptake in cancer cells relative to Comparator Compounds A and B ([2]; cancer cells) | Cell uptake, Mean (ng/10^6 cell), U87-MG (U87-MG (glioblastoma); 2 h) [ng/10^6 cell] | Cell uptake, Mean (ng/10^6 cell), SAS (SAS (head & neck cancer); 2 h) [ng/10^6 cell] | Cell uptake, Mean (ng/10^6 cell), NIH-3T3 ([1]; 2 h) [ng/10^6 cell] | Cell uptake, Mean (ng/10^6 cell), B16F10 (B16F10 (melanoma); 2 h) [ng/10^6 cell]
1 | N[C@@H](Cc1cccc(B(O)O)c1O)C(=O)O [Comparator Compound B, reference compound] | 380 ng/10^6 cell | 519 | 250 | 510 ng/10^6 cell | 487 ng/10^6 cell | 1465 ng/10^6 cell | 186 | 122 | 217 | 131 | 248 ng/10^6 cell | 662 |  |  |  |  |  | 
2 | N[C@@H](Cc1cccc(B(O)O)c1O)C(=O)O [Compound 1, (S)-2-amino-3-(3-borono-2-hydroxyphenyl)propanoic acid] | 175 ng/10^6 cell | 713 | 1315 | 863 ng/10^6 cell | 1400 ng/10^6 cell | 2625 ng/10^6 cell | 109 | 194 | 122 | 158 | 282 ng/10^6 cell | 669 | selective partitioning into cancer cells relative to normal cells | increased uptake in cancer cells relative to Comparator Compounds A and B |  |  |  | 
3 | N[C@@H](Cc1c(F)ccc(B(O)O)c1O)C(=O)O [Compound 3, (2S)-2-amino-3-[3-(dihydroxyboranyl)-6-fluoro-2-hydroxyphenyl]propanoic acid] | 307 ng/10^6 cell | 621 | 555 | 1320 ng/10^6 cell | 1295 ng/10^6 cell | 1580 ng/10^6 cell | 105 | 196 | 182 | 66.5 | 255 ng/10^6 cell | 196 |  |  |  |  |  | 
4 | N[C@@H](Cc1ccc(F)c(B(O)O)c1O)C(=O)O [Compound 4, (2S)-2-amino-3-[3-(dihydroxyboranyl)-4-fluoro-2-hydroxyphenyl]propanoic acid] | 14.3 ng/10^6 cell | 40 | 117 | 33.1 ng/10^6 cell | 191 ng/10^6 cell | 886 ng/10^6 cell | 28.3 | 36.9 | 55.3 | 29.5 | 39.1 ng/10^6 cell | 48.1 |  |  |  |  |  | 
5 | N[C@@H](Cc1cc(Cl)cc(B(O)O)c1O)C(=O)O [Compound 6, (2S)-2-amino-3-[5-chloro-3-(dihydroxyboranyl)-2-hydroxyphenyl]propanoic acid] | 58.6 ng/10^6 cell | 171 | 244 | 373 ng/10^6 cell | 796 ng/10^6 cell | 1735 ng/10^6 cell | 20.3 | 59.8 | 50.8 | 39.6 | 75.9 ng/10^6 cell | 222 |  |  |  |  |  | 
6 | N[C@@H](Cc1cc(F)cc(B(O)O)c1O)C(=O)O [Compound 8, (2S)-2-amino-3-13-(dihydroxyboranyl)-5-fluoro-2-hydroxyphenyllpropanoic acid] | 173 ng/10^6 cell | 505 | 545 | 561 ng/10^6 cell | 693 ng/10^6 cell | 1605 ng/10^6 cell | 51.7 | 119 | 101 | 115 | 185 ng/10^6 cell | 615 |  |  |  |  |  | 
7 | N[C@@H](Cc1ccc(B(O)O)cc1)C(=O)O [L-BPA, 4-Borono-L-phenylalanine] | 391 ng/10^6 cell and 343 ng/10^6 cell and 233 ng/10^6 cell and 196 ng/10^6 cell and 297 ng/10^6 cell |  |  | 425 ng/10^6 cell and 407 ng/10^6 cell and 260 ng/10^6 cell and 254 ng/10^6 cell and 218 ng/10^6 cell | 379 ng/10^6 cell and 352 ng/10^6 cell and 251 ng/10^6 cell and 219 ng/10^6 cell and 217 ng/10^6 cell | 423 ng/10^6 cell and 444 ng/10^6 cell and 501 ng/10^6 cell and 261 ng/10^6 cell and 345 ng/10^6 cell and 336 ng/10^6 cell |  |  |  |  | 247 ng/10^6 cell and 224 ng/10^6 cell and 188 ng/10^6 cell and 191 ng/10^6 cell and 185 ng/10^6 cell |  |  |  | 223 | 394 | 177 | 986
